Data from patent publication US9113629B2, “4-amino-6-(4-substituted-phenyl)-picolinates and 6-amino-2-(4-substituted-phenyl)-pyrimidine-4-carboxylates and their use as herbicides” (DOW AGROSCIENCES LLC, priority 2013, dated 2015).
Read-outs that look alike come from different tables or passages of the source.

How the values were obtained:
[1] = test system: Key Grass and Sedge Weeds as well as Grass Crops; experiment: Post-emergent Test II herbicidal activity (Table 6); format: in vivo; details: post-emergence, 336 h; for pest or weed control at 70 g/ha: application rate 70 g ai/ha; for pest or weed control at 140 g/ha: application rate 140 g ai/ha
Method in brief: (§1)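 Percent injury, 0 (none) to 100 (complete kill), was judged visually 14 d after spraying young plants at the first or second true leaf stage with compound in an acetone/DMSO aqueous carrier at 187 L/ha. Plants were kept in a greenhouse at 23–29 °C by day.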

[2] = test system: Key Broadleaf Weed and Crop Species; experiment: Post-emergent Test II herbicidal activity (Table 5); format: in vivo; details: post-emergence, 336 h, post-emergent, 14 days after application; for pest or weed control at 70 g/ha: 70 g ai/ha; for pest or weed control at 140 g/ha: 140 g ai/ha
Method in brief: as §1

[3] = Triticum aestivum, TRZSS (wheat), read-out: Visual Growth Reduction (%) 14 Days After Application, TRZSS
[4] = CYPES: yellow nutsedge (Cyperus esculentus), read-out: Visual Growth Reduction (%) 14 Days After Application, CYPES
[5] = DIGSA: crabgrass (Digitaria sanguinalis), read-out: Visual Growth Reduction (%) 14 Days After Application, DIGSA
[6] = ECHCG: barnyardgrass (Echinochloa crus-galli), read-out: Visual Growth Reduction (%) 14 Days After Application, ECHCG
[7] = ORYSA: rice (Oryza sativa), read-out: Visual Growth Reduction (%) 14 Days After Application, ORYSA
[8] = SETFA: giant foxtail (Setaria faberi), read-out: Visual Growth Reduction (%) 14 Days After Application, SETFA
[9] = SORVU: grain sorghum (Sorghum vulgare), read-out: Visual Growth Reduction (%) 14 Days After Application, SORVU
[10] = ZEAMX: maize, corn (Zea mays), read-out: Visual Growth Reduction (%) 14 Days After Application, ZEAMX
[11] = ABUTH: velvetleaf (Abutilon theophrasti), read-out: Visual Growth Reduction (%) 14 Days After Application ABUTH
[12] = AMARE: redroot pigweed (Amaranthus retroflexus), read-out: Visual Growth Reduction (%) 14 Days After Application AMARE
[13] = BRSNN: oilseed-rape, canola (Brassica napus), read-out: Visual Growth Reduction (%) 14 Days After Application BRSNN
[14] = CHEAL: lambsquarters (Chenopodium album), read-out: Visual Growth Reduction (%) 14 Days After Application CHEAL
[15] = EPHHL: wild poinsettia (Euphorbia heterophylla), read-out: Visual Growth Reduction (%) 14 Days After Application EPHHL
[16] = HELAN: sunflower (Helianthus annuus), read-out: Visual Growth Reduction (%) 14 Days After Application HELAN
[17] = VIOTR: wild pansy (Viola tricolor), read-out: Visual Growth Reduction (%) 14 Days After Application VIOTR

C=Cc1c(N)nc(-c2ccc(F)c(F)c2F)nc1C(=O)O [Compound 191, 6-Amino-2-(2,3,4-trifluorophenyl)-5-vinylpyrimidine-4-carboxylic acid]
95 to 100%: pest or weed control at 140 g/ha [2, 11] | pest or weed control at 70 g/ha [2, 12] | pest or weed control at 140 g/ha [2, 12] | pest or weed control at 70 g/ha [2, 13] | pest or weed control at 140 g/ha [2, 13] | pest or weed control at 70 g/ha [2, 14] | pest or weed control at 140 g/ha [2, 14] | pest or weed control at 70 g/ha [2, 15] | pest or weed control at 140 g/ha [2, 15] | pest or weed control at 70 g/ha [2, 16] | pest or weed control at 140 g/ha [2, 16]
154 to 157 °C: melting point
30 to 44%: pest or weed control at 140 g/ha [1, 3]
45 to 59%: pest or weed control at 70 g/ha [1, 9] | pest or weed control at 140 g/ha [1, 9] | pest or weed control at 70 g/ha [1, 10] | pest or weed control at 70 g/ha [2, 17] | pest or weed control at 140 g/ha [2, 17]
85 to 94%: pest or weed control at 70 g/ha [1, 6]
75 to 84%: pest or weed control at 140 g/ha [1, 5] | pest or weed control at 140 g/ha [1, 6] | pest or weed control at 70 g/ha [1, 8] | pest or weed control at 140 g/ha [1, 8]
0 to 29%: pest or weed control at 70 g/ha [1, 3] | pest or weed control at 70 g/ha [1, 4] | pest or weed control at 70 g/ha [1, 7] | pest or weed control at 140 g/ha [1, 7]
60 to 74%: pest or weed control at 140 g/ha [1, 4] | pest or weed control at 70 g/ha [1, 5] | pest or weed control at 140 g/ha [1, 10] | pest or weed control at 70 g/ha [2, 11]
